The subject of experiment [1] is phospho-ERK1/2 in H9 cells. As to the kind of experiment: Western blot of NPY signalling: ERK1/2 phosphorylation. It counts as cell-based, human. To be noted: 30 min pretreatment with receptor antagonist (3 μM in FIG. 11 legend), 1 μM NPY. How it is done:
(§1) The membranes were probed with the indicated antibodies, and β-actin was used as a loading control. For protein quantification, the blots were scanned, and the bands were quantified using densitometry (a-c, lower panels). The data are presented as the mean±SE (n=3). **p<0.01, *p<0.05, by t-test.
(§2) The supernatant was re-centrifuged for 10 min, and protein concentrations determined using the BCA protein assay kit (Pierce, Rockford, Ill.). Proteins (20 μg) were fractionated by SDS polyacrylamide gel electrophoresis (PAGE), and electrotransferred to polyvinylidene fluoride (PVDF) membranes (Millipore Corp, Bedford, Mass.). Membranes were blocked in PBS containing 0.1% Tween-20 and 5% non-fat milk for 2 hrs at room temperature, and probed with primary antibodies diluted in PBS/0.2% BSA for 1 hr. After washing, membranes were incubation with the corresponding secondary anti-rabbit HRP-conjugated or anti-mouse HRP-conjugated antibodies (Amersham, Arlington Heights, Ill.), and the bands were visualized using the ECL Advance kit (Amersham). Bands were analyzed for density with Image Gauge software (Fuji Photo Film GMBH, D) and normalized to loading control (β-actin) bands. All experiments were performed in triplicate. Error bars represent standard error of the mean (n=3).
(In general: Immunoblotting shows a protein as a band on a membrane.)

In another experiment the test system is phospho-AKT in H9 cells. As to the kind of experiment: Western blot of NPY signalling: AKT phosphorylation. Particulars: 1 μM NPY. It counts as cell-based, human. How it is done: as §1, §2
Another experiment relates to phospho-CREB in H9 cells. Nature of the experiment: Western blot / immunohistochemistry of NPY signalling: CREB phosphorylation. It counts as cell-based, human. To be noted: 1 μM NPY; for Effect on NPY-mediated CREB phosphorylation: pretreatment with kinase inhibitor, inhibition appeared incomplete. How it is done: as §1
For immunostaining, cells were plated on matrigel-coated 4-well Lab-Tek chamber slides (Nunc, Naperville, Ill.) and cultured for 5 days under described conditions. […] Cells were incubated for 2 hrs at 4° C. with respective primary antibodies diluted in PBS/0.2% BSA. After washing, cells were incubated with FITC- or Alexa 594-conjugated secondary antibodies (Invitrogen) in PBS/0.2% BSA for 1 hr at room temperature. Cells were counterstained using 10 μg/ml DAPI (4′,6-diamidino-2-phenylindole). Chamber slides were analyzed by an Olympus microscope or Axiovert 200M microscope (Carl Zeiss, Gottingen, Germany).
as §2

Experiment [2] has as its system human embryonic stem cells. Nature of the experiment: Feeder-free culture: maintenance of undifferentiated state (morphology, ALP staining, hESC markers). It counts as cell-based. Particulars: 3 μM antagonist in NPY medium. Here is the method: Each experiment was carried out at least three times. […] Error bars represent standard error of the mean (n=3).
Another experiment has as its system H9 hESCs. As to the kind of experiment: BrdU incorporation (hESC proliferation). It counts as cell-based, human. To be noted: inhibitor 10 μM (FIG. 4b), NPY medium. Here is the method: The proliferation rate of H9 hESCs cultured using the indicated media was measured using BrdU incorporation. […] Upper panels: representative images of BrdU+ cells. Bar=100 μm. Lower panels: Quantification of BrdU+ cells. The relative number of BrdU+ cells per field of vision was quantified and is presented as the percentage of the total number of cells counted.
Human embryonic stem cells were grown on matrigel-coated 4-well LabTec chamber slides for 4 days for the 5-bromo-2-deoxyuridine (BrdU; BD Pharmingen, San Diego) incorporation assays.
For BrdU incorporation, the cells were incubated in the presence of 30 μM BrdU for 1 hr at 37° C. […] After washing, the cells were incubated with the anti-BrdU antibody in PBS supplemented with 3% BSA for 1 hr, and then incubated with a FITC-conjugated secondary antibody (Invitrogen) for 30 min. The nuclei were stained with DAPI and examined using an Olympus microscope. The mean number of BrdU+ cells per field of vision was determined. At least four fields of vision per coverslip were counted.

For a further experiment, the system named is H9 cells. Nature of the experiment: Growth efficiency test (cell number). It counts as cell-based, human. Particulars: TGFβ addition (1 ng/ml) to N2/B27 medium with NPY, compared with MEF-CM and UM supplemented with NPY. How it is done: Comparison of the growth efficiency of H9 cells cultured using the indicated media for 6 days by measuring the cell number as described in Materials and Methods. The data are presented as the mean±SE (n=3). **p<0.01, *p<0.02, by t-test.
hESC clumps (100×100 μm; approximately 70-90 cells per clump) was seeded evenly on a 35 mm culture dish coated with Matrigel in a final volume of 2 ml. The cells were plated to a cell density of approximately 5×10^5 cells per 35 mm culture dish. The plated cells were allowed to grow for 6 days under described culture conditions. To determine the number of cells, the cells were washed with PBS and trypsinized. The cell suspension was mixed with a 0.4% (wt/vol) trypan blue solution, and the number of live cells was determined using a hemocytometer. Each trial was performed in triplicate.

Entries after “also recorded” stand apart in the source; their conditions may differ.

Regarding `NC(N)=NCCC[C@@H](NC(=O)C(c1ccccc1)c1ccccc1)C(=O)NCc1ccc(O)cc1` [BIBP3226], the “Effect on NPY-mediated ERK activation” value in experiment [1] is on record as “significantly reduced”. In the experiment with phospho-AKT in H9 cells (30 min pretreatment with receptor antagonist (3 μM in FIG. 11 legend)), the “Effect on NPY-mediated AKT activation” value is on record as “significantly reduced”. The “Effect on NPY-mediated up-regulation of p-CREB” value in the experiment on phospho-CREB in H9 cells (pretreatment with receptor antagonist) is listed as “partially blocked”. In addition, the “Maintenance of undifferentiated state in NPY medium in presence of antagonist (morphology; ALP, OCT4, SOX2, hTERT, TDGF)” value in experiment [2] was “fail to maintain in an undifferentiated state; also recorded: loss of undifferentiated human embryonic stem cells”.
`N#CC(=C(/N)Sc1ccccc1N)/C(C#N)=C(\N)Sc1ccccc1N` [U0126]: the “Effect on NPY-mediated AKT activation” value in the experiment on phospho-AKT in H9 cells (pretreatment with kinase inhibitor (10 μM in FIG. 12 legend)) is “inhibited”. The “Effect on NPY-mediated CREB phosphorylation” value with phospho-CREB in H9 cells was “blocked”. Further, the “Effect on NPY-stimulated BrdU incorporation” value in the experiment on H9 hESCs is recorded as “potent in suppressing NPY-stimulated BrdU incorporation”.
With `O=S(=O)(NCCNC/C=C/c1ccc(Br)cc1)c1cccc2cnccc12` [H89], the “Effect on NPY-mediated CREB phosphorylation” value in the experiment on phospho-CREB in H9 cells is recorded as “blocked”. Moreover, the “Effect on NPY-stimulated BrdU incorporation” value in the experiment on H9 hESCs is recorded as “potent in suppressing NPY-stimulated BrdU incorporation”.
For the compound TGFβ, the “Effect on growth efficiency (cell number)” value in the experiment on H9 cells is “did not affect the growth efficiency”.

The values are drawn from US8628963B2, “Medium composition comprising neuropeptide Y for the generation, maintenance, prolonged undifferentiated growth of pluripotent stem cells and method of culturing pluripotent stem cell using the same” (Korea Research Institute of Bioscience and Biotechnology, priority 2009, dated 2014).
